Results reported in patent US9783541B2, “5′-nucleotidase inhibitors and therapeutic uses thereof” (Centre National de la Recherche Scientifique-CNRS, priority 2013, dated 2017).
Read-outs that look alike come from different tables or passages of the source.

How the values were obtained:
[1] = biological target: purified recombinant cN-II enzyme (Homo sapiens, UniProt P49902); experiment: cN-II inhibition test (inorganic phosphate from IMP, Malachite green); assay type: biochemical; design: key to Inhibition strength (Strong/Medium/Weak): Strong; Medium; Weak
Method: The activity of cN-II is measured in vitro by following the appearance of the inorganic phosphate produced during the enzymatic reaction. The purified recombinant cN-II enzyme is used in the presence of its preferential substrate, inosine 5′-monophosphate (IMP). During the hydrolysis reaction, inosine and inorganic phosphate are produced from the IMP. This phosphate is then assayed by means of a colorimetric method using Malachite green (kit sold by the company Gentaur): the reading of absorbence at 630 nm makes it possible to quantify the inorganic phosphate.
The reagents used are: 50 mM imidazole buffer, pH=6.5, 500 mM NaCl and 10 mM MgCl2. The enzyme (cN-II) concentration is 0.1 μM and the IMP concentration is 100 μM.
A phosphate concentration range is performed in parallel in order to quantify the phosphate produced during the reaction.

RL cancer line = experiment: Synergy MTT test with cytotoxic nucleoside analogs; assay type: cell-based, Human; conditions: for Synergy MTT with cladribine / Synergy MTT with clofarabine / Synergy MTT with fludarabine: RL cells, 72 h, constant ratio, CI95; for Synergy MTT with cladribine: partner cladribine; for Synergy MTT with clofarabine: partner clofarabine; for Synergy MTT with fludarabine: partner fludarabine; for synergistic effect with at least one of the three anticancer agents: cladribine, clofarabine, fludarabine
Method: (§2) After 72 h of incubation, the living cells are quantified using the MTT reagent.
(§3) The inhibitory concentration 50 (IC50) and the combination index (CI95) are calculated with the CompuSyn software 1.0 (ComboSyn, Inc., USA).
The CI95 is calculated according to the method of Chou and Talalay^3 with a formula which takes into account the concentrations of the two compounds and the fraction affected at these concentrations (i.e. the dead cells).

[2] = tested on: RL human follicular lymphoma cell line; experiment: cytotoxicity on RL cancer line (MTT, IC50); conditions: for IC50: read-out: RL cancer line IC50, 72 h incubation, MTT
Method: as §2, §3

cells of AML patients = experiment: ex vivo cytotoxicity, Annexin V / propidium iodide flow cytometry, AML patient cells; assay type: cell-based, human; conditions: 100 μM, 24 hours
Method: (§1) Peripheral blood was recovered from patients suffering from chronic […] leukemia (LLC) or from acute myeloid leukemia (AML) in heparinized tubes. […] The cells having experienced an effect of the incubations are labeled with Annexin V alone or with propidium iodide (see FIG. 6).

cells of CLL patients = experiment: ex vivo cytotoxicity, Annexin V / propidium iodide flow cytometry, CLL patient cells; assay type: cell-based, human; conditions: 10 μM, 24 hours
Method: as §1

[3] = 200 μM compound, 0.1 μM cN-II, 100 μM IMP, pH 6.5, 37° C.

Chain of purified recombinant cN-II enzyme (P49902 whole entry): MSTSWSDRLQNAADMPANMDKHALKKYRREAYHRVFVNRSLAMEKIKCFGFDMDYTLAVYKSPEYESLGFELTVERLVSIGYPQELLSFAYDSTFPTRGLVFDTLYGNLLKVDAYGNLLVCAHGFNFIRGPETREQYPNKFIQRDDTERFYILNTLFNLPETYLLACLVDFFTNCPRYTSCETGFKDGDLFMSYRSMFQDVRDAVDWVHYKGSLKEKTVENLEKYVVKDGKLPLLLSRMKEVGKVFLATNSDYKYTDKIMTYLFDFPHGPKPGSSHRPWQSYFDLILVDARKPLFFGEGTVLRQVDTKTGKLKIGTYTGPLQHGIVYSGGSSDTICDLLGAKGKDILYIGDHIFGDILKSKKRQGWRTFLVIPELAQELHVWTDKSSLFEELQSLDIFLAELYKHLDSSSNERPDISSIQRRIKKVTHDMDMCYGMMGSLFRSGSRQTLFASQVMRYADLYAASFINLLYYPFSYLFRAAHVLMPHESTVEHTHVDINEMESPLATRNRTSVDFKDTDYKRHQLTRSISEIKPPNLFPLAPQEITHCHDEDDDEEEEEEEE

Compound	Synergy MTT with cladribine (RL cancer line)	Synergy MTT with fludarabine (RL cancer line)	synergistic effect with at least one of the three anticancer agents (RL cancer line)	Inhibition cN-II in vitro (200 μM) [1, 3]	Inhibition strength (Strong/Medium/Weak) ([1]; cN-II)	IC50 [2]	other results
9-(phenylmethyl)-9H-purin-6-yl-[1,1′-biphenyl]-3-carboxamide [(20)]	Antagonistic with (values above 1.1 indicate antagonism)	Synergy with (CI95 values below 0.9 indicate synergy between the two compounds)	synergistic effect				Inhibition strength (Strong/Medium/Weak) [1]: S; Inhibition cN-II in vitro (200 μM) ([1]; pH 6.5): 58 +/−19%; Synergy MTT with clofarabine (RL cancer line): Antagonistic with (values above 1.1 indicate antagonism)
O=C(Nc1ncnc2ncn(Cc3ccccc3)c12)c1cccc(-c2ccccc2)c1 [(19)]	Synergy with (CI95 values below 0.9 indicate synergy between the two compounds)	Synergy with (CI95 values below 0.9 indicate synergy between the two compounds)	synergistic effect	68 +/− 15%	S	60 µM	
O=C(Nc1ncnc2ncn(COCc3ccccc3)c12)c1cccc(-c2ccccc2)c1 [(21)]	Synergy with (CI95 values below 0.9 indicate synergy between the two compounds)	Additive with (values between 0.9 and 1.1 indicate additivity)	synergistic effect	50 +/− 2%	M	36 µM	intrinsic cytotoxic activity, IC50 values ([2]; cell model used (RL)): a few micromolar to a few tens of micromolar; Synergy MTT with clofarabine (RL cancer line): Synergy with (CI95 values below 0.9 indicate synergy between the two compounds)
O=C(Nc1ncnc2c1ncn2COCc1ccccc1)c1cccc(-c2ccccc2)c1 [(22), 9-[(phenylmethoxy)methyl]-9H-purin-6-yl-[1,1′-biphenyl]-3-carboxamide]				43 +/− 7%	M	188 µM	
O=S(=O)(Nc1ncnc2[nH]cnc12)c1ccc(-c2ccccc2)cc1 [(33), 9H-purin-6-yl-[1,1′-biphenyl]-4-sulfonamide]				70 +/− 5%	S	195 µM	
Nc1ccn([C@@H]2O[C@H](CO)[C@@H](O)[C@@H]2O)c(=O)n1 [cytarabine]							Annexin V labeling, AML samples, mean over the five samples (cells of AML patients): 44.5%
Nc1nc(F)nc2c1ncn2[C@@H]1O[C@H](CO)[C@@H](O)[C@@H]1O [fludarabine]							Annexin V labeling, CLL samples (cells of CLL patients): 45.8%
(naphthalene-1-carbonylamino-9H-purin-6-yl)methylphosphonic acid [(31)]				10%	W	250 µM	
(naphthalene-2-carbonylamino-9H-purin-6-yl)methylphosphonic acid [(32)]				10%	W	145 µM	
